Patent US20080176906A1, “Substituted Pyrrole Derivative” (Takeda Pharmaceutical Company Limited, priority 2004, published 2008)
Substitutions are numbered along the chain they refer to.

How the values were obtained:
[1] = target: T1, mutated AR (W741C) (Homo sapiens, UniProt P10275, W742C); assay: AR transcription inhibition test (luciferase reporter in Cos-7); format: cell-based; conditions: 0.1 μM compound, DHT 0.04 μM, 24 hours, luciferase activity, relative to a control
T1 construct: expressed in transfected cells; host or cells: Cos-7
T1 sequence (P10275 1-920 W742C): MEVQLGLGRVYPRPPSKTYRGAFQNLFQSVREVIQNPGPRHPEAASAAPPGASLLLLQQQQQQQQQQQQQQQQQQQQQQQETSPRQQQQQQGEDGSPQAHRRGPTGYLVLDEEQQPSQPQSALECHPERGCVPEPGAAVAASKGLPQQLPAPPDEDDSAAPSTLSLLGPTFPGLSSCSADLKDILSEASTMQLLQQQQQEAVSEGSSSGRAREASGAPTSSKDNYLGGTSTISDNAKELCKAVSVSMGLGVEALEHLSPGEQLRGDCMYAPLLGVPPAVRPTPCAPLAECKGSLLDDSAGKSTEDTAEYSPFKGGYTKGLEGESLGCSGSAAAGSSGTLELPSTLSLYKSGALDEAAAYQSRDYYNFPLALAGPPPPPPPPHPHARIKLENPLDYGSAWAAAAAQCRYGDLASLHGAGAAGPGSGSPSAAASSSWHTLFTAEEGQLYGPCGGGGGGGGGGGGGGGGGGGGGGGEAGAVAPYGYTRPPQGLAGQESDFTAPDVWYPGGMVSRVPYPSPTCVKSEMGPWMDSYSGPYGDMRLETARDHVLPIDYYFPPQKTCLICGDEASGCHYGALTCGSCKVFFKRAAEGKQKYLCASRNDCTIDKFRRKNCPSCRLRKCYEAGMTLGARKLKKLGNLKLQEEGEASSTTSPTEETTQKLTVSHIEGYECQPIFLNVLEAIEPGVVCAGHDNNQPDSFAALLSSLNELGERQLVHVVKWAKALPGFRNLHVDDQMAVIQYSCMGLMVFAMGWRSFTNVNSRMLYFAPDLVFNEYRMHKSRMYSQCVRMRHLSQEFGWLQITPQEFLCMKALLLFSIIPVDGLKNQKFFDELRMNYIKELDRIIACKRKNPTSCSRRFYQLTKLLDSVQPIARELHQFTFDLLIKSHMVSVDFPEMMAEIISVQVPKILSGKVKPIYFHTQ
Description: 5,000,000 Cells of Cos-7 was inoculated on a flask, and cultured in a culturing solution (DMEM+10% Dextran Charcoal (DCC)-Fetal Bovine Serum (FBS)+2 mM glutamine) for 24 hours, and a vector DNA in which mutated AR (W741C) had been inserted, and a vector DNA in which a luciferase gene had been connected downstream of an androgen-responsive promoter were transfected by a liposome method. After two hours, the medium was exchanged, the cells were cultured for 3 hours, DHT (dihydrotestosterone) having the final concentration of 0.04 μM and an assessment compound having the final concentration of 0.1 μM were added, and the cells were cultured for 24 hours, and luciferase activity was measured to investigate AR transcription inhibition activity of the assessment compound.

[2] = target: T2, wild-type androgen receptor (AR) (Homo sapiens, UniProt P10275); assay: AR binding inhibitory test (wild type); conditions: 1 μM compound, 3 nM miboleron, 4° C. for 3 hours, dextran/charcoal B/F separation; read-out: Inhibitory rate (%) at 1 μM, Wild type
T2 sequence (P10275 1-920): T1 sequence (P10275 1-920 W742C) with C742W
Description: 3 nM miboleron and 1 μM of a compound was added to a solution containing a wild-type androgen receptor (AR) or an androgen receptor (AR) having a LNCaP type mutation, this was incubated at 4° C. for 3 hours, and B(Bound)/F(Free) separation was performed by a dextran/charcoal method. A label count of B was measured, and an inhibition rate of the compound was calculated.

[3] = test system: human prostate cancer cell LNCaP-FGC; assay: Prostate specific antigen (PSA) production inhibition in prostate cancer cell; format: cell-based; conditions: 72 h, 1 μM compound, testosterone 1 ng/mL, three days, PSA in culture supernatant by ELISA, testosterone non-added group 100%, testosterone-added group 0%, read-out: PSA production Inhibitory rate (%) at 1 μM
Description: A human prostate cancer cell LNCaP-FGC was inoculated on a 96-well plate at 5000 cells/100 μL/well and, on the next day, testosterone having the final concentration of 1 ng/mL and 1 μM of a compound were added. Three days after addition, the PSA concentration in the culture supernatant was measured by ELISA, and a PSA production inhibition rate was calculated, letting the rate of a testosterone non-added group to be 100%, and letting the rate of a testosterone-added group to be 0%.

[4] = test system: mouse prostate; assay: Test of reduction in weight of mouse prostate; format: in vivo; conditions: orally 50 mg/kg/day for 7 days, 8 week old male mouse; drug non-addition 0%, castration 100%
From the text: A rate of reduction in a prostate weight is shown in Table 5, letting at drug non-addition to be 0%, and letting at castration to be 100%.

AR transcription Inhibitory rate (%) at 0.1 μM [1]: 49%
inhibition at 1 µM [2]: 94%
Compound: Cc1c(C#N)c(-c2ccc(C#N)cc2)c(C)n1Cc1cnc(Cl)c(CO)c1 [Compound 1, 1-{[6-Chloro-5-(hydroxymethyl)pyridin-3-yl]methyl}-4-(4-cyanophenyl)-2,5-dimethyl-1H-pyrrole-3-carbonitrile]
inhibition at 1 µM [3]: 99%
Reduction rate (%) of prostate weight [4]: 74%
